From patent US20090022664A1, “Radiolabelling via fluorination of aziridines” (priority 2007, published 2009)

Legend:
[1] = Plasma stability of the β-fluoro amines; type: in vitro ADME; details: in solution with Human Plasma; aliquots incubated for different time periods
Method: 675 μl EtOH were added to the reactive-vial and then 5 aliquots of 70 μl of the Plasma solution were incubated for different time periods.

[2] = Hydrolytic stability of the β-fluoro amines; type: physicochemical; details: under neutral and basic conditions (FIG. 2)
From the text: The β-fluoro amino acid derivative 11ab-18F is quite stable under neutral and basic conditions (FIG. 2).

| Structure (SMILES) | Plasma stability [1] | Hydrolytic stability [2] |
| --- | --- | --- |
| COc1ccc(S(=O)(=O)NC(C[18F])C(=O)NCc2ccccc2)cc1OC (stereo not drawn) [11ac-18F, 3-[^18F]Fluoro-N-benzyl-2-(3,4-dimethoxyphenylsulphon-amido)-propanamide] | stable | – |
| CC(C)c1cc(C(C)C)c(S(=O)(=O)NC2CN(C(=O)CCC(=O)NCc3ccccc3)CC2[18F])c(C(C)C)c1 (stereo not drawn) [35aa-18F, N-Benzyl-4-[3-[^18F]fluoro-4-(2,4,6-triisopropyl-benzene-sulfonylamino)-pyrrolidin-1-yl]-4-oxo-butyramide] | stable | – |
| CC(C)c1cc(C(C)C)c(S(=O)(=O)NC(C[18F])C(=O)NCc2ccccc2)c(C(C)C)c1 (stereo not drawn) [11ab-18F, 3-[^18F]Fluoro-N-benzyl-2-(2,4,6-triisopropylphenylsulphon-amido)-propanamide] | – | quite stable |
